Experimental data from patent US10315996B2, “ROR gamma (RORγ) modulators” (LEAD PHARMA HOLDING B.V., priority 2015, dated 2019).

target: T1, RORγ (Homo sapiens, UniProt P51449); test: RORγ GAL4 reporter gene assay; assay type: cell-based; settings: inhibition of RORγ activity, GAL4-RORγ-LBD luciferase reporter in 293FT cells, overnight incubation; read-out: mean pIC50 (converted)
T1 construct: expressed in transfected cells; host or cells: 293FT cells (Invitrogen), expression vector pFN26A (Promega)
T1 sequence (P51449 269-508 limits assumed): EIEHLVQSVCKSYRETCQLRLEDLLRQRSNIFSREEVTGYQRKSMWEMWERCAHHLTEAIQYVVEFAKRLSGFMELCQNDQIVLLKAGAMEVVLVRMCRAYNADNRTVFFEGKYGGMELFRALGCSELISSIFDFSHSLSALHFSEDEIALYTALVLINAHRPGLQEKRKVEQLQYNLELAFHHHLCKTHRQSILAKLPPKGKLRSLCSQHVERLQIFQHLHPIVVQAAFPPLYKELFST
How it was run: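 293FT cells were transiently co-transfected with GAL4-DBD–RORγ-LBD (or GAL4-VP16 control) and a 9×UAS luc2P reporter, then plated at 60,000 cells/well. Compound was added at final 0.2% DMSO for 16-24 h at 37 °C, and inhibition was measured by firefly luciferase luminescence.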

IC50 | Compound
≤ 1000 nM | CCN(C(=O)c1ccc(NC(=O)Cc2ccc(S(=O)(=O)NC3CC3)cc2)cc1)c1c(C)noc1C [Example 110, 4-{2-[4-(cyclopropylsulfamoyl)phenyl]acetamido}-N-(dimethyl-1,2-oxazol-4-yl)-N-ethylbenzamide]
≤ 10 nM | O=C(Cc1ccc(S(=O)(=O)NC2CC2)cc1)Nc1ccc(C(=O)N(CC(F)(F)F)c2ccccc2)cc1 [Example 109, 4-{2-[4-(cyclopropylsulfamoyl)phenyl]acetamido}-N-phenyl-N-(2,2,2-trifluoroethyl) benzamide]
≤ 10 nM | CCN(C(=O)c1ccc(NC(=O)Cc2ccc(S(=O)(=O)NC3CC3)cc2)cc1)c1cccc(C)c1 [Example 46, 4-{2-[4-(cyclopropylsulfamoyl)phenyl]acetamido}-N-ethyl-N-(3-methylphenyl) benzamide]
≤ 1000 nM | CCCN(C)C(=O)c1ccc(NC(=O)Cc2ccc(S(=O)(=O)CC3CC3)cc2)cc1 [Example 7, 4-[2-(4-cyclopropylmethanesulfonylphenyl)acetamido]-N-methyl-N-propylbenzamide]
≤ 100 nM | CC(C)(C1CCCO1)N(C(=O)c1ccc(NC(=O)Cc2ccc(S(=O)(=O)CC3CC3)cc2)cc1)c1ccccc1 (centres unmarked) [Example 135, 4-[2-(4-cyclopropylmethanesulfonylphenyl)acetamido]-N-[2-(oxolan-2-yl)propan-2-yl]-N-phenylbenzamide]
≤ 1000 nM | CC(C)CN(CC(C)C)C(=O)c1ccc(NC(=O)Cc2ccc(S(=O)(=O)NC3CC3)cc2)cc1 [Example 62, 4-{2-[4-(cyclopropylsulfamoyl)phenyl]acetamido}-N,N-bis(2-methylpropyl)benzamide]
≤ 1000 nM | CCCN(C(=O)c1ccc(NC(=O)Cc2ccc(S(=O)(=O)NC3CC3)cc2)cc1)c1cccnc1 [Example 65, 4-{2-[4-(cyclopropylsulfamoyl)phenyl]acetamido}-N-propyl-N-(pyridin-3-yl)benzamide]
≤ 100 nM | Cc1ccc(N(C(=O)c2ccc(NC(=O)Cc3ccc(S(=O)(=O)NC4CC4)cc3)cc2)C(C)(C)CO)cc1 [Example 154, 4-{2-[4-(cyclopropylsulfamoyl)phenyl]acetamido}-N-(1-hydroxy-2-methylpropan-2-yl)-N-(4-methylphenyl)benzamide]

The next lines start with the molecule.

Compound | IC50
O=C(Cc1ccc(S(=O)(=O)CC2CC2)cc1)Nc1ccc(C(=O)N(c2ccccc2)C2CC(F)(F)C2)cc1 [Example 144, 4-[2-(4-cyclopropylmethanesulfonylphenyl)acetamido]-N-(3,3-difluorocyclobutyl)-N-phenylbenzamide] | ≤ 10 nM
O=C(Cc1ccc(S(=O)(=O)CC2CC2)cc1)Nc1ccc(C(=O)Nc2ccccc2OC(F)(F)F)cc1 [Example 74, 4-[2-(4-cyclopropylmethanesulfonylphenyl)acetamido]-N-[2-(trifluoromethoxy)phenyl]benzamide] | ≤ 100 nM
CCN(C(=O)c1ccc(NC(=O)Cc2ccc(S(=O)(=O)CC3CC3)cc2)c(Cl)c1)c1ccccc1 [Example 53, 3-chloro-4-[2-(4-cyclopropylmethanesulfonylphenyl)acetamido]-N-ethyl-N-phenylbenzamide] | ≤ 100 nM
O=C(Cc1ccc(S(=O)(=O)CC2CC2)cc1)Nc1ccc(C(=O)N(c2ccccc2)C2CCC2)cc1 [Example 141, N-cyclobutyl-4-[2-(4-cyclopropylmethanesulfonylphenyl)acetamido]-N-phenylbenzamide] | ≤ 10 nM
CCN(C(=O)c1ccc(NC(=O)Cc2ccc(S(=O)(=O)CC3CC3)cc2)cc1)c1cc(C)no1 [Example 94, 4-[2-(4-cyclopropylmethanesulfonylphenyl)acetamido]-N-ethyl-N-(3-methyl-1,2-oxazol-5-yl)benzamide] | ≤ 10 nM
O=C(Cc1ccc(S(=O)(=O)CC2CC2)cc1)Nc1ccc(C(=O)N(c2ccccn2)C2CCC2)cc1 [Example 139, N-cyclobutyl-4-[2-(4-cyclopropylmethanesulfonylphenyl)acetamido]-N-(pyridin-2-yl)benzamide] | ≤ 10 nM
